The values that follow come from patent publication US20120107248A1, “IMAGING GASTROINTESTINAL VOLUMES AND MOTILITY” (MAYO FOUNDATION FOR MEDICAL EDUCATION AND RESEARCH, priority 2009, published 2012).

For data set [1] the following is noted: in vivo; cited from earlier work.
The test system of data set [2] is gastric wall. Kind of data set: Abdominal MRI studies in mice with automated segmentation (Example 5). It counts as in vivo. As for the experimental part: Ten abdominal MRI studies in mice were performed under three conditions in sequential order: fasting pre-contrast, fasting post-contrast, and postprandial post-contrast (after feeding with 80 μL egg yolk). Five studies each were conducted with a commercially-available gadolinium contrast agent (gadopentetic acid, Magnevist™) and with Gd-DOTA-3COOH-S-Pantoprazole. Mice were administered 2.5 mg of Magnevist or Gd-DOTA-3COOH-S-Pantoprazole in a volume of 10 μL intravenously. […] In these images the gastric lumen is marked “s.” The images were analyzed by standard techniques (i.e., full-width-half-maximum method). Following administration of Magnevist, the uptake signal increased diffusely, as shown by the arrow. […] In the Gd-DOTA-3COOH-S-Pantoprazole study, the algorithm only identified the stomach boundary after contrast, i.e., fasting and postprandial images, but the conjugate was capable of discriminating the stomach wall from its contents and surrounding tissues. Comparison of gastric wall signal intensity over time after intravenous Magnevist and Gd-DOTA-3COOH-S-Pantoprazole is shown in FIG. 9. Data were sampled at 120 equidistant points around the gastric wall.

For `O=C([O-])CN(CCN(CC(=O)[O-])CC(=O)O)CCN(CC(=O)[O-])CC(=O)O.[Gd+3]` [Gd(DTPA), gadolinium diethylenetriaminepentaacetate], the blood clearance time entry in data set [1] is given as “approximately 2 minutes”.
`CNC[C@H](O)[C@@H](O)[C@H](O)[C@H](O)CO.CNC[C@H](O)[C@@H](O)[C@H](O)[C@H](O)CO.O=C([O-])CN(CCN(CC(=O)[O-])CC(=O)O)CCN(CC(=O)[O-])CC(=O)O.[Gd+3]` [Magnevist, gadopentetic acid, reference compound]: the “splenic uptake / gastro-splenic boundary” value in data set [2] (2.5 mg intravenously, FIG. 7) is “marked splenic uptake”. For the same compound, in data set [2] (2.5 mg intravenously, full-width-half-maximum method, FIG. 6), the “gastric wall signal and automated segmentation of the gastric outline” value is “could not accurately identify the gastric outline”. Further, the “gastric wall signal intensity over time: difference between fasting post contrast and postprandial post contrast images” value in data set [2] (120 equidistant points around the gastric wall, FIG. 9) is given as “higher difference”. Further, in data set [2] (segmentation algorithm, FIG. 7 and FIG. 8), the “gastric wall thickness measurements” value was “overestimates stomach wall thickness”.
